Experimental data reported in patent EP4111863A1, “PHOSPHORUS USE EFFICIENCY ENHANCERS AS PLANT GROWTH PROMOTORS” (EuroChem Antwerpen, priority 2021, dated 2023).

Test system: SPX1
Experiment: Chemical activity assessment: SPX1 phosphate starvation biomarker, pSPX1::GUS reporter line, GUS stained area
Type: in vivo, Arabidopsis thaliana
Conditions: Table 3; 50 µM compound, low phosphate modMS liquid medium, 7 days after germination; low phosphate control average of the same plate
Description: All Arabidopsis plant experiments were performed using the Arabidopsis thaliana Columbia-0 background. The Arabidopsis pSPX1::GUS line is described in the […] 2008, 54: 965-975. For rice, the cultivar Nipponbare was used. For maize, the cultivars DKC 2931 and B104 were used for regular pot experiments and sand-based pot experiments, respectively. For soybean, the cultivar Primus was used. […] The medium was solidified due to the addition of 0,6% Gelrite, unless stated otherwise. In case of vertical plates (root length and root hair measurements), the medium was supplied with 0.5% of sucrose and 1 µM (low phosphate, 1 µM KH2PO4, 9.9 mM KCI), 10 µM (low phosphate 10 µM KH2PO4, 9.9 mM KCI) or 1.25 mM KH2PO4 (high phosphate). Arabidopsis seeds were stratified for 2 days at 4 °C before germination. Seedlings were germinated in climate-controlled growth chambers at 22 °C under continuous light (100 µmol m^-2 s^-1). Husked rice seeds were germinated on wetted Whatman paper for 2 days at 37 °C and then transferred to Sterivent boxes or square Petri dishes with solid medium. Maize and soybean seeds were wetted 24 hours at room temperature prior to sowing in pots.
For the chemical activity assessment 3 to 8 seeds per well of Arabidopsis pSPX1::GUS line were sown in 96-well plates containing 150 µl of low phosphate modMS liquid medium containing 1% of sucrose. Compounds were added in 50 µM concentration, starting from a 5 mM stock of compounds solved in DMSO. Different chemical substances were separately added to different wells. Per plate, 16 control wells were used, 8 containing only the low phosphate medium and 1% DMSO, and 8 containing high phosphate medium and 1% DMSO. 7 days after germination, plates were scanned using a flatbed scanner (EPSON Expression 11000XL) and analyzed for leaf size. After scanning, the growth medium was replaced by GUS staining solution (see Plant Mol. Biol. Rep. 1994, 12: 37-42 for details) and incubated for 1.5 hours at 37 °C. The plates were scanned a second time and analyzed for GUS signal area. Measurements of both leaf area and GUS signal area were conducted by filtering out and measure the green and blue signal, respectively using ImageJ software. If the green leaf area was 50% or less than the control, samples were omitted. Additionally, all results were visually screened for leaf size and GUS signal.

Structure (SMILES) | GUS (SPX1) stained area normalized to the number of seeds (pixels)
CCc1cc2c(=O)n(CC(=O)N3CCOC(C)C3)cnc2s1 (centres unmarked) | 0
CC1CN(C(=O)Cn2nc(-c3cccs3)oc2=O)CCO1 (centres unmarked) | 0
CCC1CN(C(=O)c2[nH]nc(C)c2Br)CCO1 (centres unmarked) | 0
CC1(C)CN(c2snc(Cl)c2C#N)CCO1 | 0
CCC(=O)c1ccc(OC(=O)N2CCOCC2)cc1 | 0
Cc1csc(C2CN(Cc3csc(C(C)(C)C)n3)CCO2)n1 (centres unmarked) | 1
CC1CN(C(=O)CCc2nc(-c3ccsc3)no2)C(C)CO1 (centres unmarked) | 1
C=CCn1c(SCc2cccc(S(=O)(=O)N3CCOCC3)c2)nc2ccccc21 | 1
c1cc2c(cc1C1CCCN1c1nc(CN3CCOCC3)nc3sc4c(c13)CCC4)OCCO2 (centres unmarked) | 1
COC(=O)C1CN(c2ccc(C(F)(F)F)cn2)C[C@@H](C)O1 (some centres unmarked) | 1
c1ccc2sc(SN3CCOCC3)nc2c1 | 1
CC(C)CCNC(=O)c1cc(S(=O)(=O)N2CCOCC2)cn1C | 1
CC1CN(Cc2nc(-c3ccc(Br)s3)no2)CCO1 (centres unmarked) | 1
C[C@@H](CO)NS(=O)(=O)c1ccc(S(=O)(=O)N2CCOCC2)cc1 | 1
CC1CN(S(=O)(=O)CCNc2nc(-c3ccncc3)nc3ccccc23)CC(C)O1 (centres unmarked) | 1
O=C(NCC(c1ccc(F)cc1)N1CCOCC1)C12CC3CC(CC(C3)C1)C2 (centres unmarked) | 1
O=C(c1csc(-c2cccs2)n1)N1CCOC2CCCCC21 (centres unmarked) | 2
CC1CN(Cc2csc(NC(=O)c3ccco3)n2)CC(C)O1 (centres unmarked) | 2
CCCn1nc(C(=O)N2CC(C)OCC2C)ccc1=O (centres unmarked) | 2
c1coc(CNc2nc(N3CCOCC3)nc3ccccc23)c1 | 2
NC(=O)C1COCCN1c1cnc2cc(Cl)c(Cl)cc2n1 (centres unmarked) | 3
O=C1Nc2ccccc2SC1Nc1ccc(F)c(S(=O)(=O)N2CCOCC2)c1 (centres unmarked) | 3
O=C(c1cccs1)C(C(c1ccc(Cl)cc1)N1CCOCC1)N1CCOCC1 (centres unmarked) | 3
CN(Cc1ccccc1N1CCOCC1)C(=O)C12CC3CC(CC(C3)C1)C2 | 3
O=S(=O)(c1ccc(OCCN(C2CC2)C2CCCc3ccccc32)cc1)N1CCOCC1 (centres unmarked) | 3
COc1ccc(-c2[nH]c3ccccc3c2CCC(=O)N2CCOCC2)cc1 | 3

Structure (SMILES) | GUS (SPX1) stained area normalized to the number of seeds (pixels)
O=C(COc1cc(Cl)ccc1Cl)NCc1ccc(N2CCOCC2)nc1 | 3
Fc1ccc(C2CN(Cc3nnsc3Cl)CCO2)cc1 (centres unmarked) | 3
CCC1CN(Cn2nc3ccccn3c2=S)CCO1 (centres unmarked) | 3
Cc1ccc(CS(=O)(=O)c2nnc(N3CCOCC3)n2C)cc1 | 4
CC1CN(C(=O)c2c(Cl)nc3ccccn23)C(C)CO1 (centres unmarked) | 4
C=CCCN1CC(C(=O)OC)O[C@H](C)C1 (some centres unmarked) | 5
O=C(CSc1ccc(F)cc1)Nc1ccc(Cl)c(S(=O)(=O)N2CCOCC2)c1 | 5
CC(C)(C)c1n[nH]c(C2CN(C(=O)c3ccc[nH]3)CCO2)n1 (centres unmarked) | 5
O=C(C1=C(O)C(=O)N(CCN2CCOCC2)C1c1ccccc1)c1cccs1 (centres unmarked) | 5
C1CCC(Sc2nnc(N3CCOCC3)s2)C1 | 35
N#Cc1c(F)cccc1Sc1nnc(N2CCOCC2)s1 | 35
Cc1nn(C)c(C)c1C1CCCN1CC(O)CN1CCOCC1 (centres unmarked) | 37
CCC(CC)C(CNC(=O)Nc1ccccc1F)N1CCOCC1 (centres unmarked) | 37
FC(F)(F)Cn1ccnc1CN1CCOC2(CCCC2)C1 | 38
Cc1ccc(C(C)C)c(OCCNCCN2CCOCC2)c1 | 40
O=C1CCCCCN1CCCNC(=O)N1CCOC2(CCCCCC2)C1 | 40
COc1ccc(OC)c2c1CN(c1nc(CN3CCOCC3)nc3sc(C)c(C)c13)CC2O (centres unmarked) | 42
CSc1nnc(CN2CC(c3ccccc3)OCC2(C)C)s1 (centres unmarked) | 43
c1ccc2nc(N3CCOCC3)cnc2c1 | 43
O=S(=O)(c1cccc(-c2nnc(SCc3ccccc3)o2)c1)N1CCOCC1 | 43
Cc1cc(C)n(CC2CN(c3ncnc4ccsc34)CCO2)n1 (centres unmarked) | 44
CCc1nsc(N2CCOC(C)C2)n1 (centres unmarked) | 44
CC1(C)COCCN1C(=O)c1cnc(-c2cccs2)s1 | 45
Cc1cnc(CN2CCOC(c3ccc(C(F)(F)F)cc3)C2)o1 (centres unmarked) | 46
CC1CCCN(C(C)CNS(=O)(=O)N2CCOCC2)C1 (centres unmarked) | 46
Cc1cnc(CN2CCOCC23CCCC3)o1 | 46

Structure (SMILES) | GUS (SPX1) stained area normalized to the number of seeds (pixels)
CC1CN(C(=O)c2csc(-c3ccsc3)n2)C(C)CO1 (centres unmarked) | 46
CC1COCCN1Cn1nc(Br)nc1Br (centres unmarked) | 47
CCC1CN(Cc2cc(=O)n3cc(Cl)ccc3n2)CCO1 (centres unmarked) | 47
CCCc1csc(NC(=O)N2CCOC3(CCC3)C2)n1 | 49
c1ccc2sc(CN3CCOC(c4nccs4)C3)nc2c1 (centres unmarked) | 49
Cc1nnc(CN2CCOCC2c2cccn2C)o1 (centres unmarked) | 50
CC1CN(C(=O)C2(c3ccc(F)cc3)CC2)CC1N1CCOCC1 (centres unmarked) | 53
COc1cccc(C(c2c(-c3ccccc3)n(O)c3ccccc23)N2CCOCC2)c1 (centres unmarked) | 54
CC1CN(c2ccc([N+](=O)[O-])nc2)CC(c2ccsc2)O1 (centres unmarked) | 55
CC1CN(S(=O)(=O)N(CC2CCOC2)C2CC2)CC(C)O1 (centres unmarked) | 60
CCC1CN(C(=O)C(C)OCC2CC2)CC1N1CCOCC1 (centres unmarked) | 62
CN1CCOC(C(=O)N2CCN(CC3CC3)c3ccccc32)C1 (centres unmarked) | 64
CC(CNC(=O)N1CCCCC1c1cccn1C)CN1CCOCC1 (centres unmarked) | 65
C#CCNC(=O)CN1CCOC(CC)C1 (centres unmarked) | 66
CCCCS(=O)(=O)N1CCOCC1c1noc(C(C)C)n1 (centres unmarked) | 73
CC(NC(=O)N1CCOC(CO)C1)c1ccc(Br)cc1 (centres unmarked) | 129
CCc1ccc(C(C)NCC2(N3CCOCC3)CCSC2)o1 (centres unmarked) | 151
O=C(C1CSCN1C(=O)CC1=CCCCC1)N1CCOCC1 (centres unmarked) | 162
CCN1CCOC(CNCc2ccc(-n3cncn3)cc2)C1 (centres unmarked) | 301
CN(C)c1nc(CN2CCOCC2CC(=O)c2ccco2)ns1 (centres unmarked) | 330
NC(=O)C1CN(C(=O)C2(c3cccc(C(F)(F)F)c3)CC2)CCO1 (centres unmarked) | 349
CCc1ncncc1C(=O)NCCN1CC(C)OC(C)C1 (centres unmarked) | 362
CC1CN(C(C)c2nc(C3CC3)no2)CCO1 (centres unmarked) | 441
CC(c1nnc(-c2cccs2)o1)N1CCOC(c2nccs2)C1 (centres unmarked) | 453
Clc1cnccc1N1CCC(OCCN2CCOCC2)CC1 | 491
